How the values were obtained:
Assay type in all cases: cell-based
[1] = system: estrogen receptor response gene (SDF) in MCF7 breast cancer cells; experiment: Inhibition of Estrogen Receptor Target Gene Transcription (SDF qPCR); details: MCF7, 10 nM estradiol, 4 hours; 1 uM fulvestrant; 5 or 10 uM 0032661
Procedure: After 4 hours, RNA was harvested and converted into cDNA. qPCR analysis for SDF was performed on all samples and normalized to expression of GAPDH. The data, shown in FIG. 7, is expressed as fold change relative to SDF expression of the cFBS sample.

[2] = system: estrogen receptor response genes Cyclin D1 and pS2 in MCF7 breast cancer cells; experiment: Inhibition of Estrogen Receptor Target Gene Protein Expression (immunoblot); details: MCF7, 10 nM E2, 18 hours; 1 uM fulvestrant; 5 or 10 uM 0032661
Procedure: After 18 hours, protein was harvested. SDS-PAGE followed by immunoblotting of samples was performed using standard techniques. Protein lysates were immunoblotted for Estrogen Receptor (ER), Cyclin D1, pS2, and Actin.

[3] = system: BT474 breast cancer cells; experiment: BT474 Four (4) Day Cell Viability Assay; details: BT474, 4 days, 32661 0 μM
Procedure: BT474 breast cancer cells that are Estrogen Receptor Positive and HER2+ were grown in 5% cFBS. 5,000 cells were seeded into each well of a 96-well plate and treated with escalating doses of lapatinib, fulvestrant, and 32661.

[4] = system: PSA in LNCaP prostate cancer cells; experiment: Inhibition of Increased Protein Levels of PSA (immunoblot); details: 10 nM DHT, 18 hours, 5 uM enzalutamide, 10, 15 or 20 uM 0032661
Procedure: After 18 hours protein was harvested. SDS-PAGE followed by immunoblotting of samples was performed using standard techniques. Protein lysates were immunoblotted for the Androgen Receptor (AR), PSA, and Actin.

## C[C@]12CC[C@@H]3c4ccc(O)cc4C[C@@H](CCCCCCCCC[S+]([O-])CCCC(F)(F)C(F)(F)F)[C@H]3[C@@H]1CC[C@@H]2O (some centres unmarked) [Fulvestrant, fulvestrant, reference compound]
[1]
  estrogen receptor target gene transcription (SDF): inhibit the estrogen receptor target gene transcription
[2]
  protein levels of estrogen receptor target genes (Cyclin D1, pS2): inhibit the increase in protein levels of estrogen receptor target genes
[3]; fulvestrant 6.9 nM, lapatinib 0.0 nM
  cellular viability: 94%
[3]; fulvestrant 6.9 nM, lapatinib 6.9 nM
  cellular viability: 96%
[3]; fulvestrant 6.9 nM, lapatinib 20.6 nM
  cellular viability: 96%
[3]; fulvestrant 6.9 nM, lapatinib 61.7 nM
  cellular viability: 87%
[3]; fulvestrant 6.9 nM, lapatinib 185.2 nM
  cellular viability: 85%
[3]; fulvestrant 6.9 nM, lapatinib 555.6 nM
  cellular viability: 79%
[3]; fulvestrant 6.9 nM, lapatinib 1666.7 nM
  cellular viability: 69%
[3]; fulvestrant 6.9 nM, lapatinib 3333.0 nM
  cellular viability: 51%
[3]; fulvestrant 20.6 nM, lapatinib 0.0 nM
  cellular viability: 94%
[3]; fulvestrant 20.6 nM, lapatinib 6.9 nM
  cellular viability: 88%
[3]; fulvestrant 20.6 nM, lapatinib 20.6 nM
  cellular viability: 88%
[3]; fulvestrant 20.6 nM, lapatinib 61.7 nM
  cellular viability: 83%
[3]; fulvestrant 20.6 nM, lapatinib 185.2 nM
  cellular viability: 82%
[3]; fulvestrant 20.6 nM, lapatinib 555.6 nM
  cellular viability: 78%
[3]; fulvestrant 20.6 nM, lapatinib 1666.7 nM
  cellular viability: 63%
[3]; fulvestrant 20.6 nM, lapatinib 3333.0 nM
  cellular viability: 47%
[3]; fulvestrant 61.7 nM, lapatinib 0.0 nM
  cellular viability: 91%
[3]; fulvestrant 61.7 nM, lapatinib 6.9 nM
  cellular viability: 89%
[3]; fulvestrant 61.7 nM, lapatinib 20.6 nM
  cellular viability: 89%
[3]; fulvestrant 61.7 nM, lapatinib 61.7 nM
  cellular viability: 90%
[3]; fulvestrant 61.7 nM, lapatinib 185.2 nM
  cellular viability: 88%
[3]; fulvestrant 61.7 nM, lapatinib 555.6 nM
  cellular viability: 77%
[3]; fulvestrant 61.7 nM, lapatinib 1666.7 nM
  cellular viability: 66%
[3]; fulvestrant 61.7 nM, lapatinib 3333.0 nM
  cellular viability: 34%
[3]; fulvestrant 185.2 nM, lapatinib 0.0 nM
  cellular viability: 94%
[3]; fulvestrant 185.2 nM, lapatinib 6.9 nM
  cellular viability: 91%
[3]; fulvestrant 185.2 nM, lapatinib 20.6 nM
  cellular viability: 91%
[3]; fulvestrant 185.2 nM, lapatinib 61.7 nM
  cellular viability: 91%
[3]; fulvestrant 185.2 nM, lapatinib 185.2 nM
  cellular viability: 88%
[3]; fulvestrant 185.2 nM, lapatinib 555.6 nM
  cellular viability: 74%
[3]; fulvestrant 185.2 nM, lapatinib 1666.7 nM
  cellular viability: 63%
[3]; fulvestrant 185.2 nM, lapatinib 3333.0 nM
  cellular viability: 36%
[3]; fulvestrant 555.6 nM, lapatinib 0.0 nM
  cellular viability: 87%
[3]; fulvestrant 555.6 nM, lapatinib 6.9 nM
  cellular viability: 90%
[3]; fulvestrant 555.6 nM, lapatinib 20.6 nM
  cellular viability: 90%
[3]; fulvestrant 555.6 nM, lapatinib 61.7 nM
  cellular viability: 88%
[3]; fulvestrant 555.6 nM, lapatinib 185.2 nM
  cellular viability: 82%
[3]; fulvestrant 555.6 nM, lapatinib 555.6 nM
  cellular viability: 74%
[3]; fulvestrant 555.6 nM, lapatinib 1666.7 nM
  cellular viability: 58%
[3]; fulvestrant 555.6 nM, lapatinib 3333.0 nM
  cellular viability: 26%
[3]; fulvestrant 1666.7 nM, lapatinib 0.0 nM
  cellular viability: 80%
[3]; fulvestrant 1666.7 nM, lapatinib 6.9 nM
  cellular viability: 79%
[3]; fulvestrant 1666.7 nM, lapatinib 20.6 nM
  cellular viability: 76%
[3]; fulvestrant 1666.7 nM, lapatinib 61.7 nM
  cellular viability: 75%
[3]; fulvestrant 1666.7 nM, lapatinib 185.2 nM
  cellular viability: 68%
[3]; fulvestrant 1666.7 nM, lapatinib 555.6 nM
  cellular viability: 65%
[3]; fulvestrant 1666.7 nM, lapatinib 1666.7 nM
  cellular viability: 47%
[3]; fulvestrant 1666.7 nM, lapatinib 3333.0 nM
  cellular viability: 15%
[3]; fulvestrant 3333.0 nM, lapatinib 0.0 nM
  cellular viability: 60%
[3]; fulvestrant 3333.0 nM, lapatinib 6.9 nM
  cellular viability: 53%
[3]; fulvestrant 3333.0 nM, lapatinib 20.6 nM
  cellular viability: 53%
[3]; fulvestrant 3333.0 nM, lapatinib 61.7 nM
  cellular viability: 26%
[3]; fulvestrant 3333.0 nM, lapatinib 185.2 nM
  cellular viability: 24%
[3]; fulvestrant 3333.0 nM, lapatinib 555.6 nM
  cellular viability: 32%
[3]; fulvestrant 3333.0 nM, lapatinib 1666.7 nM
  cellular viability: 20%
[3]; fulvestrant 3333.0 nM, lapatinib 3333.0 nM
  cellular viability: 4%

## CNC(=O)c1ccc(N2C(=S)N(c3ccc(C#N)c(C(F)(F)F)c3)C(=O)C2(C)C)cc1F [enzalutamide, reference compound]
[4]
  increase in protein levels of PSA: inhibit the increase in protein levels of PSA

— patent US10472352B2, “Rac inhibitors” (Geneyus LLC, priority 2017, dated 2019)
